{"source": "patent US20170295783A1", "about": "“COMPOSITIONS AND METHODS TO SELECTIVELY CONTROL SPECIES” (STEPHEN F. AUSTIN STATE UNIVERSITY, priority 2014, published 2017)", "key": {"T. sebifera seedlings": {"system": "T. sebifera seedlings", "test": "Droplet test and foliar spray of fractions on Chinese tallow seedlings", "set-up": "species or system Triadica sebifera", "conditions": "in vivo", "description": "The leaf surfaces of the experimental plants were checked daily for two weeks by a ×60 portable microscope linked to an iPhone™."}, "Giant Salvinia": {"system": "Giant Salvinia", "test": "Leaf-blade droplet bioassay on giant salvinia", "format": "in vivo, Salvinia molesta", "conditions": "for Activity against Giant Salvinia: 8 μL of 1% solution on lower leaf surface", "experimental": "The three plants in the first container served as control without any treatment, three plants in the second container were treated with 1% DMSO, three plants in the third container were treated with 5% DMSO, three plants in the fourth container were treated with 0.5% Dyne-Amic®, and the plants in each of the other four containers were treated with each of the four testing isolates, respectively. For each of the three plant in the 0.5% Dyne-Amic® treatment, 8 μL of 0.5% Dyne-Amic® was applied on the lower surface of each of the two mature leaf blades close to the terminal bud by pipet and 8 μL of 0.5% Dyne-Amic® was applied on the upper surface (with trichomes) of each of the two other mature leaf blades close to the terminal bud by pipet. For all three plants in each of the DMSO or testing isolates treatment containers, 8 μL of each experimental solution was applied on the lower surface of each of the two mature leaf blades close to the terminal bud by pipet."}, "[1]": {"system": "human tumor cells or normal cells", "conditions": "Li, et al., 2013; cited from earlier work"}, "A. palmeri": {"system": "A. palmeri", "test": "Leaf droplet bioassay on A. palmeri seedlings", "format": "in vivo, Amaranthus palmeri", "conditions": "10 μL 0.5% glyphosate", "experimental": "Bioassays: The experimental plants were 3-week-old A. palmeri seedlings germinated from the seeds collected from the above described glyphosate-resistant plants. The seedlings were grown in pots with Miracle Grow Potting Mix soil in the greenhouse (30° C. during the day time and 20° C. at night). The intact seedling plants of 3-week old Q. texana and 2-month-old L. styraciflua grown in pots in greenhouse were also tested in this experiment. […] The leaf surfaces of the experimental plants were checked daily for two weeks by a ×60 portable microscope linked to an iPhone™."}}}
{"smiles": "COc1c(OC)c(OC)c2oc(=O)ccc2c1OC", "note": "[5,6,7,8-Tetramethoxycoumarin, 5,6,7,8-tetramethoxycoumarin]", "values": [{"measurement": "endocidal activity in the droplet test", "setting": "T. sebifera seedlings", "result": "showed endocidal activity"}]}
{"smiles": "CC(=O)/C=C/C1=C(C)C[C@@H](O)CC1(C)C", "note": "[compound 1, (+)-3-Hydroxy-β-ionone]", "values": [{"measurement": "Activity against Giant Salvinia", "setting": "Giant Salvinia", "result": "Potent activity"}, {"measurement": "leaves dead by the end of experiment (of six)", "setting": "Giant Salvinia; 8 μL/leaf, 1% solution", "result": "two leaves were dead"}, {"measurement": "time to significant injury of the six treated leaf blades", "setting": "Giant Salvinia; 8 μL/leaf, 1% solution, lower surface", "result": "≤ 12", "unit": "h"}, {"measurement": "time to death of lower surface contact tissues (FIG. 1)", "setting": "Giant Salvinia; applied on the lower surface of the leaf blade", "result": "≤ 12", "unit": "h"}, {"measurement": "cytotoxicity against human tumor cells or normal cells", "setting": "[1]", "result": "did not show any cytotoxicity"}]}
{"smiles": "CC(=O)/C=C/[C@H]1C(C)=C[C@H](O)CC1(C)C", "values": [{"measurement": "cytotoxicity against human tumor cells or normal cells", "setting": "[1]", "result": "did not show any cytotoxicity"}]}
{"smiles": "CC(=O)/C=C/[C@@]1(O)C(C)=CC(=O)CC1(C)C", "note": "[compound 4, Dehydrovomifoliol]", "values": [{"measurement": "Activity against Giant Salvinia", "setting": "Giant Salvinia", "result": "No activity"}, {"measurement": "leaf injury during the two weeks of observation", "setting": "Giant Salvinia; 8 μL/leaf, 1% solution", "result": "no or slight injury"}, {"measurement": "cytotoxicity against human tumor cells or normal cells", "setting": "[1]", "result": "did not show any cytotoxicity"}]}
{"smiles": "CC(=O)/C=C/[C@H]1C(C)=C[C@H](O)CC1(C)C", "note": "[compound 2, (3R,6R,7E)-3-hydroxy-4,7-megastigmadien-9-one]", "values": [{"measurement": "Activity against Giant Salvinia", "setting": "Giant Salvinia", "result": "Weak activity"}, {"measurement": "leaf injury during the two weeks of observation", "setting": "Giant Salvinia; 8 μL/leaf, 1% solution", "result": "no or slight injury"}]}
{"smiles": "CC(=O)/C=C/[C@@]12O[C@]1(C)C[C@@H](O)CC2(C)C", "note": "[compound 3, Annuionone D]", "values": [{"measurement": "Activity against Giant Salvinia", "setting": "Giant Salvinia", "result": "No activity"}, {"measurement": "leaf injury during the two weeks of observation", "setting": "Giant Salvinia; 8 μL/leaf, 1% solution", "result": "no or slight injury"}, {"measurement": "cytotoxicity against human tumor cells or normal cells", "setting": "[1]", "result": "did not show any cytotoxicity"}]}
{"smiles": "O=C(O)CNCP(=O)(O)O", "note": "[glyphosate]", "values": [{"measurement": "leaf injury", "setting": "A. palmeri", "result": "no injury"}]}
